Measured values reported in ChEMBL document CHEMBL1201862, “PubChem BioAssay data set” (2004).
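Each compound was tested at five concentrations against cells in 96-well plates for 48 hours. Abbreviation: GI50, concentration required for 50% inhibition of growth.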 Active and inactive are the calls of the source. Cut-off read from the data, not from the text of the source: active = GI50 up to about 1.1 µM and inactive = higher.

Experiments:
Assay in all cases: NCI anticancer screen, dose series, 48 h
SF-295 = system: SF-295
CCRF-CEM = system: CCRF-CEM
M19-MEL = system: M19-MEL
OVCAR-4 = system: OVCAR-4
UACC-257 = system: UACC-257
KM12 = system: KM12
UO-31 = system: UO-31
HCT-116 = system: HCT-116
HL-60 = system: HL-60
SNB-19 = system: SNB-19
K562 = system: K562
HT-29 = system: HT-29
IGROV-1 = system: IGROV-1
OVCAR-5 = system: OVCAR-5
NCI/ADR-RES = system: NCI/ADR-RES
LOX IMVI = system: LOX IMVI
XF498 = system: XF498
SF-268 = system: SF-268
COLO 205 = system: COLO 205
DLD-1 = system: DLD-1
A549 = system: A549
HCC 2998 = system: HCC 2998
NCI-H460 = system: NCI-H460
SK-MEL-28 = system: SK-MEL-28
NCI-H226 = system: NCI-H226
A498 = system: A498
OVCAR-8 = system: OVCAR-8
SK-OV-3 = system: SK-OV-3
U-251 = system: U-251
MCF7 = system: MCF7
SK-MEL-2 = system: SK-MEL-2
Malme-3M = system: Malme-3M
SF-539 = system: SF-539
RPMI-8226 = system: RPMI-8226
CAKI-1 = system: CAKI-1
DMS-273 = system: DMS-273
MOLT-4 = system: MOLT-4
NCI-H23 = system: NCI-H23
KM-20L2 = system: KM-20L2
HOP-92 = system: HOP-92
OVCAR-3 = system: OVCAR-3
SW-620 = system: SW-620
EKVX = system: EKVX
SN12C = system: SN12C
NCI-H522 = system: NCI-H522
HOP-18 = system: HOP-18
SK-MEL-5 = system: SK-MEL-5
RXF 393 = system: RXF 393
SNB-75 = system: SNB-75
DMS-114 = system: DMS-114
HOP-62 = system: HOP-62
UACC-62 = system: UACC-62
HCT-15 = system: HCT-15
SNB-78 = system: SNB-78

With `CN(C)CCOc1cc2c(c3ccccc13)-c1ccccc1C2O` (centres undefined) the GI50 (SF-295) was 13.5 µM (inactive), the GI50 (CCRF-CEM) was 14.1 µM (inactive) and the GI50 (M19-MEL) was 16.6 µM (inactive). The GI50 (OVCAR-4) was 17.9 µM (inactive), the GI50 (UACC-257) was 15.5 µM (inactive) and the GI50 (KM12) was 14.8 µM (inactive). For the same compound, the GI50 (UO-31) was 12.5 µM (inactive), the GI50 (HCT-116) was 13.2 µM (inactive) and the GI50 (HL-60) was 11.6 µM (inactive). The GI50 (SNB-19) was 8.28 µM (inactive), the GI50 (K562) was 18.6 µM (inactive) and the GI50 (HT-29) was 13.5 µM (inactive). The GI50 (IGROV-1) was 16.7 µM (inactive), the GI50 (OVCAR-5) was 13 µM (inactive) and the GI50 (NCI/ADR-RES) was 3.49 µM (inactive). For the same compound, the GI50 (LOX IMVI) was 10.2 µM (inactive), the GI50 (XF498) was 12.9 µM (inactive) and the GI50 (SF-268) was 14.5 µM (inactive). The GI50 (COLO 205) was 12.5 µM (inactive), the GI50 (DLD-1) was 15.8 µM (inactive) and the GI50 (A549) was 15.5 µM (inactive). The GI50 (HCC 2998) was 14.4 µM (inactive), the GI50 (NCI-H460) was 7.21 µM (inactive) and the GI50 (SK-MEL-28) was 16 µM (inactive). For the same compound, the GI50 (NCI-H226) was 13.7 µM (inactive), the GI50 (A498) was 15 µM (inactive) and the GI50 (OVCAR-8) was 11.7 µM (inactive). For the same compound, the GI50 (SK-OV-3) was 16.1 µM (inactive), the GI50 (U-251) was 15.5 µM (inactive) and the GI50 (MCF7) was 12.8 µM (inactive). The GI50 (SK-MEL-2) was 17.2 µM (inactive), the GI50 (Malme-3M) was 18.2 µM (inactive) and the GI50 (SF-539) was 14.3 µM (inactive). For the same compound, the GI50 (RPMI-8226) was 12.6 µM (inactive), the GI50 (CAKI-1) was 12.9 µM (inactive) and the GI50 (DMS-273) was 15 µM (inactive). For the same compound, the GI50 (MOLT-4) was 3.33 µM (inactive), the GI50 (NCI-H23) was 16.9 µM (inactive) and the GI50 (KM-20L2) was 15.6 µM (inactive). For the same compound, the GI50 (HOP-92) was 6.56 µM (inactive), the GI50 (OVCAR-3) was 15.6 µM (inactive) and the GI50 (SW-620) was 12.4 µM (inactive). The GI50 (EKVX) was 14.8 µM (inactive), the GI50 (SN12C) was 13.4 µM (inactive) and the GI50 (NCI-H522) was 16 µM (inactive). For the same compound, the GI50 (HOP-18) was 14.8 µM (inactive), the GI50 (SK-MEL-5) was 15.5 µM (inactive) and the GI50 (RXF 393) was 1.47 µM (inactive). For the same compound, the GI50 (SNB-75) was 10.3 µM (inactive), the GI50 (DMS-114) was 11.7 µM (inactive) and the GI50 (HOP-62) was 14.9 µM (inactive). The GI50 (UACC-62) was 17.2 µM (inactive), the GI50 (HCT-15) was 12.4 µM and the GI50 (SNB-78) was 15.9 µM (inactive).
